Assay results taken from patent publication US11197862B2, “Methods of preventing toxicity of platinum drugs” (XOMICS BIOPHARMA, INC., priority 2015, dated 2021).
“Also recorded” adds a separate entry of the source.

Assays:
[1] = system: MDCK cells expressing OCT2, MATE1 and MATE2K; test: LDH cytotoxicity of cisplatin in MDCK-II triple-transporter model; assay type: cell-based, canine; details: 6 μM buflomedil; 1 mM cisplatin; FIG. 7
Experimental: A triple-transporter model for OCT2(SLC22A2), MATE1(SLC47A1), and MATE2-K(SLC47A2) was created by transfecting fully confluent MDCK-II cell monolayers with DNA mixture containing the plasmids encoding OCT2, MATE1, and MATE-2K at concentrations of 40, 15, and 5 ng/μl, respectively. […] This systems were cultured in complete medium consisting of Dulbecco's modified Eagle's medium without phenyl-red with 10% fetal bovine serum in an atmosphere of 5% CO2-95% air at 37° C. The apical medium was adjusted to pH 6.7 with 25 mM of 2-(N-morpholino) ethanesulfonic acid (MES).
Dolutegravir was tested at 10 μM. […] Cytotoxicity was tested using the same procedure described above.

[2] = system: Balb/c mice exposed to chronic treatment with Oxaliplatin; test: Morphometry and histopathology of DRG neurons in chronic oxaliplatin neuropathy model; assay type: in vivo, mouse; details: for area of DRG neuron cell bodies and nucleoli (morphometry): OXA 3.5 mg/kg iv twice a week for 4 weeks (8 cycles) ± BFMD 30 mg/kg ip + 15 mg/kg iv
Description: The investigator was blind to the nerve and DRG conditions for these analyses. Three animals from each group were sacrificed four days after the last oxaliplatin dose. The left sciatic nerves and the L4-L5 DRGs were harvested and processed following previously reported protocols, resin embedded and sectioned for light and electron microscope analysis. For the light microscopy analysis, 1 μm semithin sections were stained with toluidine blue and examined using a Nikon Eclipse E200 light microscope (Nikon, Firenze, Italy). For the electron microscopy analysis, ultrathin sections (80 nm) counterstained with uranyl acetate and lead citrate, were examined with a Philips CM 10 transmission electron microscope (Philips, Eindhoven, Netherlands).
The investigator was blind to the experimental conditions of the tissue for these experiments. One micron thick semithin sections stained with toluidine blue were used for morphometric examination of the DRGs from control (n=3) and oxaliplatin-treated mice (n=3). (Renn et al. Molecular Pain 2011, 7:29). Only the cells where the nucleolus was included in the section plane of 50 μm-spaced out sections were considered to avoid the overlapping of the same cell bodies and they were analyzed with computer-assisted image analysis (ImageJ, NIH) to measure the soma and nucleolus size of at least 300 DRG neurons per mouse.

[3] = system: Balb/c mice exposed to chronic treatment with Oxaliplatin; test: Sciatic nerve histology, g-ratio, in chronic oxaliplatin neuropathy model; assay type: in vivo, mouse; details: OXA 3.5 mg/kg iv, 8 cycles ± BFMD 30 mg/kg ip + 15 mg/kg iv
Experimental: After completion of behavioral and electrophysiological analysis, animals were killed and sciatic nerves were dissected, fixed, stained for myelin and cut as semithin sections. Light microscopy was performed to capture an image of the entire nerve which was then subjected to semi-automatic software-based nerve morphometry in order to assess axon diameter and myelin thickness 20.
To assess changes in nerve cell myelination, we calculated the g ratio of nerve fibers (g-ratio denominates the numerical ratio between the diameter of the axon and the outer diameter of the myelinated fiber; hypomyelination in sciatic nerves, which is associated with platinum neurotoxicity (Boehmerle, W., et al. Sci. Rep. 4, 6370), would thus cause an increase of the g-ratio).

[4] = system: Balb/c mice exposed to chronic treatment with Oxaliplatin; test: Cold Plate Test in chronic oxaliplatin neuropathy model; assay type: in vivo, mouse; details: for Cold Plate Test pain signs after third injection / Cold Plate Test pain signs at the end of treatment (eight injections): OXA 3.5 mg/kg iv ± BFMD 30 mg/kg ip + 15 mg/kg iv; for Cold Plate Test pain signs after third injection: 3 cycles
Experimental: Cold Plate Test was used to determine the alterations in cold temperature related pain perception and their changes due to pharmacological treatment. Cold Plate Test was performed by using an apparatus (35100—Hot/Cold Plate. Ugo Basile instruments) composed by a Plexiglas cylinder and a thermostatic plate, able to reach variable temperatures. The mice were placed on the plate set at +4° C., free to move and walk. Two blinded experimenters simultaneously determine the number of pain signs (e.g. jumping, licking, etc.) in a trial of 5 minutes.

[5] = Plasma levels of buflomedil and oxaliplatin in the chronic model; assay type: in vivo, mouse; details: 15 minutes after the 8th cycle
Experimental: At baseline (before drug treatment) and at the end of treatment, caudal nerve conduction study (NCS), behavioral tests (Dynamic and Cold Plate), histopathology study were performed. Serum samples were collected at the end of treatment.

[6] = system: male wistar rats treated with cisplatin; test: Cisplatin nephrotoxicity in Wistar rats (Example 9); assay type: in vivo, rat; details: co-administration with cisplatin 11 mg/kg IV; 72 hrs post treatment; expected
[7] = target: T1, OCT2 over OCT3, MATE1 and MATE2K (Homo sapiens, UniProt O15244); test: Inhibition of OCT2-mediated oxaliplatin transport in 100% human serum or HBSS containing 4% BSA (IC50,app); details: human, MDCK-II cells transfected with human transporters, selectivity between OCT2 and OCT3, MATE1 and MATE2K, oxaliplatin transport
T1 sequence (O15244 1-555): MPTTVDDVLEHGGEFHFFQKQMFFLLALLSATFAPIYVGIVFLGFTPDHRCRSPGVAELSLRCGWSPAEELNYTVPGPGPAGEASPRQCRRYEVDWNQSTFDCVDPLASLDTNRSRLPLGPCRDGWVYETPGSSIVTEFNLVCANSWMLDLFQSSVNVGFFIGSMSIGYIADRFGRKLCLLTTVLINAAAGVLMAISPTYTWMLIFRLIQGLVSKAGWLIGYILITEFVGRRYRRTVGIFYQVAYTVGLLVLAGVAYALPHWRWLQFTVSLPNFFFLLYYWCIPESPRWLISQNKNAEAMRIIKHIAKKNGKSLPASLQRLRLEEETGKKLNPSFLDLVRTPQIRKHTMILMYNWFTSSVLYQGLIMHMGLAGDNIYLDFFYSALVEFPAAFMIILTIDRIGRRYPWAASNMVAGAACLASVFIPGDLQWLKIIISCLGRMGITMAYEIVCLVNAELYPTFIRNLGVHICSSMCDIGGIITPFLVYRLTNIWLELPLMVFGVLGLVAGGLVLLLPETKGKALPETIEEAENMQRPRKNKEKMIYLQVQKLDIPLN
Description: Fully confluent MDCK cell monolayers were transfected with either cDNA plasmids encoding the human transporter to be tested or a GFP control. […] The cells were then washed with ice-cold PBS and lysed with 50:50 acetonitrile:H2O. Intracellular content of the substrate was quantified by LC/MS/MS or a MicroBeta radiometric plate reader.

SMILES: COc1cc(OC)c(C(=O)CCCN2CCCC2)c(OC)c1 [Buflomedil, 4-pyrrolidin-1-yl-1-(2,4,6-trimethoxyphenyl)butan-1-one]
- effect on cisplatin cytotoxicity [1]: significantly reduced cytotoxicity from 1 mM of cisplatin
- area of DRG neuron cell bodies and nucleoli (morphometry) ([2]; listed as BFMD): nearly completely prevented OXA's induced DRG neuronal injury; also recorded: no difference from the CTRL group
- area of DRG neuron cell bodies and nucleoli (morphometry) ([2]; listed as buflomedil): effective on preventing dorsal root ganglion (DRG) nerve cell injury
- DRG histopathology (light and electron microscopy) ([2]; OXA 3.5 mg/kg iv, 8 cycles ± BFMD 30 mg/kg ip + 15 mg/kg iv): look clearly similar to the control
- sciatic nerve G-ratio (hypomyelination) ([3]; listed as BFMD): reduction in G-ratio of the OXA+BFMD group vs OXA group
- sciatic nerve G-ratio (hypomyelination) ([3]; listed as buflomedil): effective on reducing sciatic nerve damage
- Cold Plate Test pain signs after third injection ([4]; listed as BFMD): only the group treated with OXA alone showed a significant increase in pain signs
- Cold Plate Test pain signs after third injection ([4]; listed as buflomedil): effective on reducing cold allodynia
- Cold Plate Test pain signs at the end of treatment (eight injections) ([4]; 8 cycles, listed as BFMD): significant decrease in pain signs versus OXA alone
- Cold Plate Test pain signs at the end of treatment (eight injections) ([4]; 8 cycles, listed as buflomedil): effective on reducing cold allodynia
- cold allodynia (cold plate test) ([4]; buflomedil 80 mg/kg po 2 hours before OXA, 8 cycles, n=3/group): effective on reducing mechanical (FIG. 30A) and cold (FIG. 30B) allodynia; also recorded: showed protective effects against OXAIPN
- pharmacokinetic interaction between BFMD and OXA (plasma levels) [5]: No pharmacokinetic interaction was observed
- plasma level at the end of the study ([5]; BFMD 30 mg/kg ip + 15 mg/kg iv): > 1720 ng/mL
- serum BUN values [6]: lowers the BUN values

SMILES: Clc1ccc(COC(Cn2ccnc2)c2ccc(Cl)cc2Cl)c(Cl)c1 (stereo not drawn) [Miconazole]
- selectivity ratio [7]: > 10
